# Experimental data: US7468380B2, “Nitrogen-containing aromatic derivatives” (Eisai R&D Management Co., Ltd., priority 2002, dated 2008)
# Tested on: VEGF high-expressing pancreatic cancer cells (KP-1/VEGF)
# Assay: Antitumor activity on KP-1/VEGF cells in subcutaneous xenograft models
# Assay type: in vivo, mouse
# Details: 60 mg/kg/day, oral twice a day, 2 weeks, Balb/c (nu/nu) mice
# Protocol: VEGF high-expressing pancreatic cancer cells (KP-1/VEGF) suspended in PBS at a concentration of 1×10^7 cells/ml were transplanted under the right flank skin of 6-week-old female Balb/c (nu/nu) mice in a volume of 0.1 ml. When the tumor volume reached approximately 100 mm^3, the test substance was orally administered twice a day over a period of 2 weeks with a schedule of 5 days per week. The test substance was suspended in 0.5% methyl cellulose for an administered volume of 0.1 ml/10 g body weight. The tumor size was measured twice a week using a micrometer caliper. The tumor volume was determined by measuring the long and short diameters of the tumor with a micrometer caliper, and calculating ½×(long diameter×short diameter×short diameter). The experiment was conducted using 10 mice in the control (solvent-administered) group and 5 mice in each test substance-administered group.
smiles,measurement,value
"CNC(=O)n1ccc2cc(Oc3ccnc(NC(=O)N4CCC(N5CCCC5)CC4)c3)ccc21 [Example 46, N1-Methyl-5-(2-(((4-(pyrrolidin-1-yl)piperidin-1-yl)carbonyl)amino)pyridin-4-yloxy)-1H-1-indolecarboxamide]",proportion of the tumor volume to that of control,60.0%
